Data: US5766927A, “Inhibition of protein degradation in living cells with dipeptides” (Massachusetts Institute of Technology, priority 1994, dated 1998)
Entries after “also recorded” stand apart in the source; their conditions may differ. Where two headings read alike, the source gives them in different places. Residues, ends and D or L forms follow the SMILES beside them.

What was measured:
Arg-βgal = test: Steady state β-galactosidase activity, cells expressing Arg-βgal; conditions: for in vivo metabolic stabilization of Arg-βgal (βgal activity relative to untreated control): 2 hours incubation with dipeptide
Method: (§1) Saccharomyces cerevisiaecells of the strain BWGl-7a (MATa his4 ade1 ura3 leu2) were transformed with plasmids using conventional techniques (F. Sherman et al. Methods in Yeast Genetics Cold Spring Harbor Laboratory, N.Y., 1981). The transformed cells were grown at 30° C. in a medium of 2% galactose, 0.67% Yeast Nitrogen Base without amino acids (Difco), adenine (10 μg/mL), histidine (20 μg/mL) and leucine (60 ug/mL).

[1] = system: yeast (S.cerevisiae) cells; test: Effect on yeast cell growth (optical density at 600 nm)
Method: as §1
The effect of 10 mM of leucine methyl ester (Leu methyl ester) on growth of exponentially growing yeast cells harboring a plasmid expressing either arginine-βgal (Arg-βgal, .largecircle., .circle-solid.) or leucine-βgal (Leu-βgal, .quadrature.,.box-solid.), supplemented with nothing (.largecircle.,.box-solid.) or with Leu methyl ester to a 10 mM final concentration (.box-solid.,.circle-solid.), was assessed. Results are represented in FIG. 1. Growth under each of these conditions was monitored by optical density at 600 nm.

Leu-βgal [2] = test: Steady state β-galactosidase activity, cells expressing Leu-βgal; format: cell-based, Saccharomyces cerevisiae; conditions: 10 mM
Method: (§2) Incubation was continued at 30° C.
Control cultures (.largecircle., .quadrature.) received no methyl ester.
Exponentially growing yeast cells harboring a plasmid expressing Leu- βal were supplemented with Leu methyl ester to the 10 mM final concentration (zero time) and assayed for βgal activity over a 7 hour time course (.box-solid.). A control culture (.quadrature.) received no methyl ester.

Tyr-βgal = test: Pulse-chase experiment in vivo and half-life determination, Tyr-βgal; format: cell-based, Saccharomyces cerevisiae; conditions: for in vivo half-life (metabolic stabilization) of Tyr-βgal: 4 hour incubation
Method: (§3) Transformed cells were grown as described above, except that methionine (20 ug/mL) was included, to an optical density of about 0.5 at 600 nm. Amino acid derivatives were added and incubation continued for 4 to 5 hours until the optical density was approximately 1.0. Cells from a 10 mL culture were harvested by filtration through the well of a microtiter filtration plate. Subsequently, the cells were washed several times on the filter in the growth medium lacking methionine, and resuspended in 0.4 mL of 1% galactose, 50 mM potassium phosphate buffer (pH 7.4). (^35 S)methionine (100 uCi) was then added for a specified pulse time. The cells were collected by filtration and resuspended in 0.4 mL of the growth medium containing cycloheximide (0.2 mg/mL) and trichodermin (50 ug/mL). Samples (0.1 mL) were withdrawn at indicated times, and added to 0.8 mL of cold Buffer A (50 mM Na-HEPES pH 7.5, 0.15M NaCl, 5 mM EDTA, 1% TRiton X-100) containing leupeptin, pepstatin A, antipain, aprotinin and chymostatin (Sigma), (each at 20 ug/mL) in addition to 0.4 mL of glass beads. The cells were disrupted by vortexing three times for one minute at 4° C. The extracts were centrifuged at 12,000 g for 10 minutes and the radioactivity of acid-insoluble ^35 S in the supernatants was determined. Aliquots of the supernatants containing equal amounts of total acid-insoluble ^35 S were processed for immunoprecipitation with a monoclonal antibody to βgal. Ascitic fluid containing a molar excess of the antibody (at least ten-fold) was added to each aliquot, with subsequent incubation on ice for 1 to 2 hours. Protein A-Sepharose (Pharmacia) was then added and the suspension was incubated with rocking at 4° C. for 30 minutes and centrifuged at 12,000 g for thirty seconds. The protein A-Sepharose pellets were washed three times in Buffer A containing 0.1% SDS, resuspended in an SDS, dithiothreitol (DTT)-containing electrophoretic sample buffer, heated at 100° C. for 3 minutes, and centrifuged at 12,000 g for 20 seconds. (Laemmli, Nature 227, 680 (1970)). The supernatants were subjected to electrophoresis in a 6% discontinuous polyacrylamide-SDS gel (150 by 150 by 1.5 mm), with subsequent fluorography.
(§4) After fluorography of the pulse-chase gels, the amount of radioactivity in each band was detected by scintillation counting of the respective gel slices. Half-lives were calculated from these values (appropriately adjusted using the value from a blank gel slice) assuming a first-order kinetics of protein breakdown.
A pulse-chase experiment (3 minute pulse) was carried out with cells expressing Tyr-βgal in the absence (A) or presence (B) of a 4 hour incubation with 10 mM Leu methyl ester. Timepoints: 0 min (lane 1); 10 min (lane 2); 30 min (lane 3); and 60 min (lane 4). See legend to FIG. 6 for band designations.

Val-βgal = test: Steady state β-galactosidase activity, cells expressing Val-βgal (control); format: cell-based, Saccharomyces cerevisiae; conditions: Leu-OMe 0 to 10 mM, 1 hour incubation
Method: as §2

Leu-βgal [3] = format: cell-based, Saccharomyces cerevisiae; conditions: for half-life (metabolic stabilization) of Leu-βgal in the presence of Leu methyl ester: 10 mM, 3 hour incubation
Method: as §3, §4
A pulse-chase experiment (5 minute pulse) was carried out with cells expressing Val-βgal (A), or Leu-βgal in the presence (B) or absence (C) of a 3 hour incubation with 10 mM Leu methyl ester. Timepoints: 0 min (lane 1); 10 min (lane 2); and 30 min (lane 3). Bands are labelled: βgal (β-galactosidase); 90 kD (a cleavage product of βgal; note its absence from the lanes with metabolically stable Val-βgal lanes); X (an unrelated protein species crossreacting with the monoclonal antibody to βgal); and S (a βgal cleavage product apparently specific for metabolically stable X-βgal; species).
A pulse-chase experiment (5 minute pulse) was carried out with cells expressing Val-βgal (A), Leu-βgal (B), Leu-βgal plus 10 mM L-Ala-L-Trp (C), and Leu-βgal plus 10 mM L-Trp-L-Ala (D). Incubation with each dipeptide was carried out for 4 hours. Timepoints: 0 min (lane 1); 10 min (lane 2); and 30 min (lane 3). See legend to FIG. 6 for band designations.

[4] = system: X-βgal proteins with bulky hydrophobic amino termini (Phe-βgal, Leu-βgal, Trp-βgal, Tyr-βgal, Ile-βgal); test: Steady state β-galactosidase activity, X-βgal proteins with bulky hydrophobic amino-terminal residues; format: cell-based, Saccharomyces cerevisiae; conditions: 1 hour incubation
Method: as §2

[5] = dipeptides, over the time periods used (data not shown)
[6] = 10 mM Leu methyl ester vs minus OMe

`C[C@H](N)C(=O)N[C@@H](CCCNC(=N)N)C(=O)O` [L-Ala-L-Arg, L-alanine-L-arginine, reference compound] (H-Ala-Arg-OH) was tested, and the “in vivo metabolic stabilization of Arg-βgal (βgal activity relative to untreated control)” value (Arg-βgal) was “no effect” and the “effect on yeast cell growth” value [1, 5] was “no adverse effect”.
`C[C@H](N)C(=O)N[C@@H](Cc1c[nH]c2ccccc12)C(=O)O` [L-Ala-L-Trp, reference compound] (H-Ala-Trp-OH) was tested, and the “effect on yeast cell growth” value [1] was “no adverse effect”.
In the case of `C[C@@H](NC(=O)[C@@H](N)CCCNC(=N)N)C(=O)O` [L-Arg-D-Ala] (HELM PEPTIDE1{R.[dA]}$$$$V2.0), the “in vivo metabolic stabilization of Arg-βgal (βgal activity relative to untreated control)” value (Arg-βgal) is reported as “stronger metabolic stabilization; also recorded: much better in vivo metabolic stabilizer”.
In the case of `C[C@H](NC(=O)[C@@H](N)CCCN=C(N)N)C(=O)O` [L-Arg-L-Ala, L-arginine-L-alanine] (H-Arg-Ala-OH), the “effect on yeast cell growth” value [1, 5] is reported as “no adverse effect”.
With `C[C@H](NC(=O)[C@@H](N)Cc1c[nH]c2ccccc12)C(=O)O` [L-Trp-L-Ala, L-tryptophan-L-alanine] (H-Trp-Ala-OH) the “effect on yeast cell growth” value [1] was “no adverse effect”.
`COC(=O)[C@@H](N)CC(C)C` [Leu methyl ester, leucine methyl ester] was tested, and the “steady state activity (amount) of Leu-βgal” value (Leu-βgal [2]; 3 hours incubation, varying initial OD600) was “specifically increases”, the “increase in βgal level per hour (slope of line of best fit, compared with control levels)” value (Leu-βgal [2]; 7 hour time course, Leu-βgal) was 11 fold per hour and the “magnitude of the effect on Leu-βgal levels over time” value (Leu-βgal [2]; first 7 hours) was “increases linearly with time”. The “amount of Arg-βgal” value (Arg-βgal; 10 mM Leu methyl ester, 3 hours incubation, varying initial OD600) was “does not increase”, the “effect on Arg-βgal level” value (Arg-βgal; Leu-OMe 0 to 10 mM, 1 hour incubation) was “No effect” and the “amounts of the 90 kD cleavage product” value (Tyr-βgal; 10 mM Leu methyl ester) was “decrease”. The “increase in half-life of Tyr-βgal” value (Tyr-βgal; [6]) was 4.8 fold, the “zero-time increase in the amount of Tyr-βgal protein” value (Tyr-βgal; 10 mM Leu methyl ester, 3 minute pulse) was 3.3 fold and the “in vivo half-life (metabolic stabilization) of Tyr-βgal” value (Tyr-βgal; 10 mM Leu methyl ester) was “metabolic stabilization”. For the same compound, the “in vivo half-life (metabolic stabilization) of Tyr-βgal” value (Tyr-βgal; 10 mM Leu methyl ester, listed as Leu-OMe) was “increased”, the “effect on Val-βgal level” value (Val-βgal) was “No effect” and the “90 kD βgal cleavage product” value (Leu-βgal [3]; 10 mM Leu methyl ester) was “much diminished”. For the same compound, the “increase in half-life of Leu-βgal” value (Leu-βgal [3]; [6]) was 3 fold, the “zero-time increase in the amount of Leu-βgal protein (βgal band, lane 1)” value (Leu-βgal [3]; 10 mM Leu methyl ester, 5 minute pulse) was 1.9 fold and the “half-life (metabolic stabilization) of Leu-βgal in the presence of Leu methyl ester” value (from here on “half-life … of Leu methyl ester”) (Leu-βgal [3]) was “metabolic stabilization”. For the same compound, the “half-life … of Leu methyl ester” value (Leu-βgal [3]; listed as Leu-OMe) was “increased”, the “half-life … of Leu methyl ester” value (Leu-βgal [3]; listed as leucine methyl ester) was “extended” and the “concentration at which the effect reaches saturation” value [4] was 5 to 10 mM. The “levels of all 5 X-βgal proteins with bulky hydrophobic amino termini” value ([4]; Leu-OMe 0 to 10 mM) was “increased” and the “effect on cell growth” value ([1]; 10 mM Leu methyl ester, exponentially growing cells expressing Arg-βgal or Leu-βgal) was “no adverse effects”.
